In brackets after ≈: the same amount, converted by molar mass. Entries after “also recorded” stand apart in the source; their conditions may differ.
Experiments:
CYP3A4 = CYP3A4 (Homo sapiens (Human), UniProt P08684); assay: Reversible CYP inhibition, 3A4; type: in vitro ADME; settings: for IC50: up to 50 μM for Example 3, up to 25 μM for Examples 644 and 641
Protocol: Reversible CYP inhibition, time dependent CYP inhibition (TDI) and CYP induction was tested at Cyprotex PLC according to authority guidance.

[1] = molecular target: panel of 23 Tyrosine kinases, including JAK1, and 68 Serine and Threonine kinases; assay: Kinase selectivity panel at CARNA Biosciences; type: biochemical; settings: inhibitor concentration approximately 1000 times JAK1 EC50
Protocol: The kinase selectivity profiles of Example 3 of the present invention as well as Examples 644 and 641 of WO2011086053 were evaluated at CARNA Biosciences Inc. with a panel consisting of 23 Tyrosine kinases, including JAK1 (ABL, CSK, EGFR, EPHA2, EPHB1, EPHB4, FGFR1, FLT3, IGF1R, ITK, JAK1, JAK3, KDR, […], PDGFRα, PDGFRβ, PYK2, SRC, TIE2, TRKA and TYRO3) as well as 68 Serine and Threonine kinases ([…], AKT1, AMPKα1/β1/γ1, AurA, AurB, AurC, BRSK2 ([ATP]=Km value), CaMK1a ([ATP]=Km value), CaMK2a ([ATP]=Km value), CaMK4, CDC2/CycB1, CDC7/ASK, CDK2/CycA2, CDK2/CyE1, CDK3/CyE1 ([ATP]=Km value), CDK4/CyD3, CDK6/CyD3, CDK7/CycH/MAT1, CDK9/CycT1, CHK1, CK1ε, CK2α1/β, CK2α2/β, CLK1, CLK2, DAPK1, DYRK1B, Erk2, GSK3α, GSK3β, HGK, IKKβ, IRAK4 ([ATP]=Km value), JNK2, LOK ([ATP]=Km value), MAPKAP2, MLK1, MLK2, MNK2 ([ATP]=Km value), MST1, MST2 ([ATP]=Km value), NEK1, NEK2, NEK6, NEK7, NEK9, p38α, p70S6K, PAK1 ([ATP]=Km value), PAK2, PAK5 ([ATP]=Km value), PBK, PDK1, PIM1, PIM2, PKACα, PKCα, OKD2, PKN1 ([ATP]=Km value), PLK1, PLK2 ([ATP]=Km value), ROCK1, RSK1, SGK, skMLCK ([ATP]=Km value) and TSSK1). […] The percentage of inhibition was measured at an inhibitor concentration of approximately 1000 times JAK1 EC50.

[2] = Aqueous solubility of crystalline material; type: physicochemical; settings: aqueous medium, aqueous buffer, thermodynamic from solid
Protocol: The aqueous solubility of crystalline Example 3, Example 644 and 641 of WO2011086053 at different pH's was evaluated.

STAT5 irfl-bla TF1 cells = assay: STAT5 assay (EPO stimulated reporter cells); type: cell-based; settings: Homo sapiens, TF-1; erythropoietin (EPO) 10 ng/mL
Protocol: Twenty-five μL of a STAT5 irfl-bla TF1 (Invitrogen # K1219) cell suspension was seeded with a density of about 10,000 cells/well in 384-well Black View-plates (PerkinElmer #6007460) with clear bottom in assay medium (Opti-MEM (Invitrogen #11058-021)+0.5% heat inactivated fetal bovine Serum (Invitrogen #10082-147)+1% non-essential amino acids (Invitrogen #11140-050)+1% sodium pyruvate (Invitrogen #11360-070)+1% penicillin/streptomycin (Invitrogen #15140-122)). The cell plates were incubated overnight in a humidified 37° C. air/CO2 (95%/5%) incubator. The following day, 125 nL of solutions of test compounds and reference compounds were transferred to cell plates using the Labcyte Echo 550 liquid handler. The plates were then incubated for 1 h in a humidified 37° C. air/CO2 (95%/5%) incubator. Hereafter recombinant human erythropoietin (EPO) (Invitrogen # PHC9634) was added to the plates also using the Labcyte Echo 550 to a final concentration of 10 ng/mL. The cells were then incubated for 4½-5 h in a humidified 37° C. air/CO2 (95%/5%) incubator. 8 μL of LiveBLAzer substrate mixture (Invitrogen # K1095) were then added to the assay plates, which were then incubated overnight at RT. Fluorescence was then measured: Excitation: 405 nm; Emission: 460 nm (green channel), Emission: 535 nm (blue channel). Background was subtracted in both emission channels and the ratio 460/535 nm was calculated for each well.

Chain of CYP3A4 (P08684 whole entry): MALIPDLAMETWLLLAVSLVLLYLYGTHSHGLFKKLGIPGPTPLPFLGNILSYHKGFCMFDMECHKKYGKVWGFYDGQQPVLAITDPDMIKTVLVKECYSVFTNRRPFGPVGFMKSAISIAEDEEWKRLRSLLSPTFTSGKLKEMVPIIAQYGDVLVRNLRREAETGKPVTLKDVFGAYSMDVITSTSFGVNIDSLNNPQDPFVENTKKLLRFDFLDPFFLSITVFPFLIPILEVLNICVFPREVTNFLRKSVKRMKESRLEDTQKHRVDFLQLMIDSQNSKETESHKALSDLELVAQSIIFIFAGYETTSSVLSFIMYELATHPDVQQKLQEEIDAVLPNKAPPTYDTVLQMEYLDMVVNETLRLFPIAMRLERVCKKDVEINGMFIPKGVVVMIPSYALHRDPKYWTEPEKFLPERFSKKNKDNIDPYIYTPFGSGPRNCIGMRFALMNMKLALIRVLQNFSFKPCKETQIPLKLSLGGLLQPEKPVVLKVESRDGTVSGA

SMILES	IC50 (CYP3A4)	Kinases of the panel inhibited by 50% or more (summary) [1]	Tyrosine kinases inhibited by 50% or more at an ATP concentration of 1 mM (n ≥ 2) [1]	solubility ([2]; pH 2.0, crystalline material)	solubility ([2]; pH 7.4, crystalline material)	solubility ([2]; pH 9.0, crystalline material)	EC50 (STAT5 irfl-bla TF1 cells)	CYP3A4 inhibition (in words) (CYP3A4)	Serine and Threonine kinases inhibited by 50% or more (n ≥ 2) [1]
CNc1cc2c(cn1)nc([C@@H](C)O)n2[C@H]1CC[C@H](CC#N)CC1 [Example 3, trans-2-[4-[2-[(1R)-1-Hydroxyethyl]-6-(methylamino)imidazo[4,5-c]pyridin-1-yl]cyclohexyl]acetonitrile]	> 50 µM	none of the tested kinases except JAK1 were inhibited by more than 50%	JAK1	> 346000 µg/mL	12300 µg/mL (≈ 39.2 mM)	11100 µg/mL (≈ 35.4 mM)	6.42 µM		
C[C@@H](O)c1nc2cnc3[nH]ccc3c2n1[C@H]1CC[C@H](C#N)CC1 [Example 641 of WO2011086053]	10.9 µM	inhibited nine other kinases besides JAK1 by 50% or more	JAK1 and FGFR1 and FLT3 and KDR and PDGFRα	90000 µg/mL (≈ 291 mM)	2260 µg/mL (≈ 7.31 mM)	2280 µg/mL (≈ 7.37 mM)	5.74 µM	weak CYP3A4 inhibition	BRSK2, [ATP] = 50 μM; also recorded: LOK, [ATP] = 100 μM; also recorded: MST1, [ATP] = 1 mM; also recorded: MST2, [ATP] = 75 μM; also recorded: PKN1, [ATP] = 25 μM
C[C@@H](O)c1nc2cnc3[nH]ccc3c2n1[C@H]1CC[C@H](CC#N)CC1 [Example 644 of WO2011086053]	10.8 µM	inhibited nine other kinases besides JAK1 by 50% or more	JAK1 and FGFR1 and FLT3 and KDR and PDGFRα and PDGFRβ	2470 µg/mL (≈ 7.64 mM)	136 µg/mL (≈ 0.421 mM)	9.9 µg/mL (≈ 0.0306 mM)	0.123 µM	weak CYP3A4 inhibition	BRSK2, [ATP] = 50 μM; also recorded: LOK, [ATP] = 100 μM; also recorded: MST2, [ATP] = 75 μM; also recorded: PKN1, [ATP] = 25 μM

Reference: patent US10703751B2, “Amino-imidazopyridine derivatives as Janus kinase inhibitors and pharmaceutical use thereof” (LEO Pharma A/S, priority 2017, dated 2020)
